From the NIST ThermoML archive (doi:10.1021/acs.jced.7b00185)
Numbers after ± are expanded uncertainties.

Conditions: Liquid; for mass density: 298.15 K, 101.33 kPa, Vibrating tube method; for vapor or sublimation pressure: Ebulliometric method (Recirculating still)

| SMILES | mass density [kg/m3] | vapor or sublimation pressure (336.61 K) [kPa] | vapor or sublimation pressure (344.29 K) [kPa] | vapor or sublimation pressure (350.5 K) [kPa] | vapor or sublimation pressure (355.83 K) [kPa] | vapor or sublimation pressure (360.49 K) [kPa] | vapor or sublimation pressure (363 K) [kPa] |
| --- | --- | --- | --- | --- | --- | --- | --- |
| CCOC(=O)C(C)O (racemic) [DL-ethyl lactate] | 1028.08 ± 0.1 |  |  |  |  |  |  |
| COC(=O)OC [dimethyl carbonate] | 1063.29 ± 0.08 | 40 ± 3.5 | 53.33 ± 3.8 | 66.66 ± 4.6 | 79.99 ± 5.3 | 93.32 ± 5.9 | 101.3 ± 6.4 |
| CO [methanol] | 786.56 ± 0.12 |  |  |  |  |  |  |
